# Measured values reported in article PMC3743763, “Conformational Changes in the Lower Palm Domain of ASIC1a Contribute to Desensitization and RFamide Modulation” (PLoS ONE, 2013).
# No end group written: not given here.
# T1: human ASIC1a L280C (Homo sapiens, UniProt P78348, L280C)
# T1 construct: expressed in transfected cells; host or cells: Xenopus laevis oocytes (nuclear injection of pMT3 expression plasmid)
# T1 sequence (P78348 1-528 L280C): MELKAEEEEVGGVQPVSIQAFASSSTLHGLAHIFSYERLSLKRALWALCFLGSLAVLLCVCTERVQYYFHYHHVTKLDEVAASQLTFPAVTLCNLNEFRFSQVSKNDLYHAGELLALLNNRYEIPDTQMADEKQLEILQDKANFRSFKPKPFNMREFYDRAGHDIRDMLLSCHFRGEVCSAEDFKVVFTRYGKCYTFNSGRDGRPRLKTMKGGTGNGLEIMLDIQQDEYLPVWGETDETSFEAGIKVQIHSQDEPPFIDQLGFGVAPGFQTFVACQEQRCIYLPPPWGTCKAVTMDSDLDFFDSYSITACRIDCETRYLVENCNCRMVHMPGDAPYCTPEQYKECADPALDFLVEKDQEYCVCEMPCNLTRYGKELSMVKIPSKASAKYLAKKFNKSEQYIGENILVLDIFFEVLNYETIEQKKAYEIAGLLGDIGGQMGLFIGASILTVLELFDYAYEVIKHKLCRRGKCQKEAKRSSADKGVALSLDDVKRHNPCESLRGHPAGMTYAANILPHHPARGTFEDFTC
# T2: human ASIC1a L280C (human) (UniProt P78348)
# T2 sequence: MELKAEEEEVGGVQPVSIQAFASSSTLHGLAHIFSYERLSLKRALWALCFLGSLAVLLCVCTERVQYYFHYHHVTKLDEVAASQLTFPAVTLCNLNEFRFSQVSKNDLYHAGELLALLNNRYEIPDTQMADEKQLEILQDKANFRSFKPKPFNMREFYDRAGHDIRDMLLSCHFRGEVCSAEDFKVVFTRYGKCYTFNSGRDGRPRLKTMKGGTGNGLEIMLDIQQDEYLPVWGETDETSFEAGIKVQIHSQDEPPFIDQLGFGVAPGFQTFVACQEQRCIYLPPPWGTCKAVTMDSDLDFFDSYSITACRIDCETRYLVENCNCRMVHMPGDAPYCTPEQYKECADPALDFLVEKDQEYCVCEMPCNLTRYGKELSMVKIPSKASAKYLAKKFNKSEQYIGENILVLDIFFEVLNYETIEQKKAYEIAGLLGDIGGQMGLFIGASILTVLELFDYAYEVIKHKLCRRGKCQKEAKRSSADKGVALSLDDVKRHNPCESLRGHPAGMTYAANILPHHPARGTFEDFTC
# T3: human acid-sensing ion channel 1a (hASIC1a), wild type (human) (UniProt P78348)
# T3 sequence: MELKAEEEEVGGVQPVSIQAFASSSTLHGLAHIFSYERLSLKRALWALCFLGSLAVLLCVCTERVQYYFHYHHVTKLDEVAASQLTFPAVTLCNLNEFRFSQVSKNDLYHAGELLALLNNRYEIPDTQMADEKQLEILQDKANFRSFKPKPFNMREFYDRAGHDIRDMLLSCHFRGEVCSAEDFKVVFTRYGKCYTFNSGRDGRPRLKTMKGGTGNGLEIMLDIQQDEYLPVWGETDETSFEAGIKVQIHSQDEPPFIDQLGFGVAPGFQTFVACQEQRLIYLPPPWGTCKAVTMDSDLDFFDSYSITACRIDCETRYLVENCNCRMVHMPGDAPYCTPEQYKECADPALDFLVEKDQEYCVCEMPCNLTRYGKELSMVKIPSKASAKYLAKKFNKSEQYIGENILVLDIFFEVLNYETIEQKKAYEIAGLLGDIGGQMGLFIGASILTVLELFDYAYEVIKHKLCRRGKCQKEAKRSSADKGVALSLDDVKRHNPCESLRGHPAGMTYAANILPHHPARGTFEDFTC
# How the values were obtained:
# human ASIC1a L280C [1] = target: T1, human ASIC1a L280C; experiment: FRRFa / FRRF (no amide) modulation of acid-evoked currents, two-electrode voltage clamp in Xenopus oocytes; format: cell-based; settings: 100 µM peptide 1 min at pH 7.4 before pH 5.0, current at 60 s normalized to peak, p = 2x10^-6 vs FRRFa
# Procedure: The Stratagene QuikChange® site-directed mutagenesis kit (Cedar Creek, TX) was used to introduce point mutations into the human ASIC1a cDNA (GENBANK accession number NM_001095) within the pMT3 expression vector. Mutations were confirmed by DNA sequencing at the Plant-Microbe Genomics Facility at The Ohio State University and high quality plasmid DNA was prepared for injection using Qiagen (Valencia, CA) Midi prep kits. Female Xenopus laevis were purchased from Xenopus I (Dexter, MI) and Xenopus oocytes were isolated using standard procedures. This work was implemented in accordance with the Guide for the Care and Use of Laboratory Animals of the National Institutes of Health and approved by the Institutional Animal Care and Use Committee of The Ohio State University (protocol # 2009A0161-R1). The oocyte removal surgery was performed under tricaine methanesulfonate (MS222) anesthesia and all efforts were made to minimize suffering. Ovarian lobes were removed and digested for 1.5-2 hours at room temperature with 1.2 mg/ml collagenase in Modified Barth’s solution lacking calcium (24 mM NaHCO3, 88 mM NaCl, 15 mM HEPES, 1 mM KCl, 0.8 mM MgSO4, 125 units/liter penicillin/streptomycin) to separate individual oocytes and remove follicular membranes. Healthy stage IV and V oocytes were selected and maintained in Modified Barth’s solution containing calcium (0.4 mM CaCl2 and 0. 3 mM Ca(NO3)2). The nuclei of isolated oocytes were injected with ~5 ng of a 100 ng/µl stock of wildtype or mutant ASIC1a expression plasmids using a PV820 pneumatic picopump (World Precision Instruments, Sarasota, FL). Oocytes were incubated at 18 °C for 18-96 hours before experiments were performed. […]
# In order to obtain the pH dependence of activation, basal pH was maintained at pH 7.4. […] Peak current amplitude was measured for each test pH and normalized to the average peak amplitude of flanking pH 5.0 currents to minimize the impact of potential tachyphylaxis. […] As before, maximal currents were measured before and after test conditioning pH to minimize the effect of possible tachyphylaxis of proton-gated current. […]
# human ASIC1a L280C [2] = target: T1, human ASIC1a L280C; experiment: Peptide-MTSET competition (MTSET modification in presence of peptide, residual current read-out); format: cell-based; settings: 100 µM peptide + 300 µM MTSET at pH 7.4
# Procedure: The Stratagene QuikChange® site-directed mutagenesis kit (Cedar Creek, TX) was used to introduce point mutations into the human ASIC1a cDNA (GENBANK accession number NM_001095) within the pMT3 expression vector. Mutations were confirmed by DNA sequencing at the Plant-Microbe Genomics Facility at The Ohio State University and high quality plasmid DNA was prepared for injection using Qiagen (Valencia, CA) Midi prep kits. Female Xenopus laevis were purchased from Xenopus I (Dexter, MI) and Xenopus oocytes were isolated using standard procedures. This work was implemented in accordance with the Guide for the Care and Use of Laboratory Animals of the National Institutes of Health and approved by the Institutional Animal Care and Use Committee of The Ohio State University (protocol # 2009A0161-R1). The oocyte removal surgery was performed under tricaine methanesulfonate (MS222) anesthesia and all efforts were made to minimize suffering. […]
# Vehicle or 100 µM peptide was applied for 1 minute at pH 7.4. […] Before residual current was measured, oocytes were washed with at least 50 mL of pH 7.4 over 10 minutes in order to remove peptides. […]
# [3] = target: T2, human ASIC1a L280C (human)
# [4] = target: T3, human acid-sensing ion channel 1a (hASIC1a), wild type (human)
"EC50 of FRRFa modulation of the residual current of pH 5.0-evoked currents (two-electrode voltage clamp, Xenopus oocytes; responses normalised to 100 µM FRRFa) [3]","EC50 of FRRFa modulation of the residual current of pH 5.0-evoked currents (two-electrode voltage clamp, Xenopus oocytes; responses normalised to 100 µM FRRFa) [4]",Molecule,residual current (Iresidual/Itransient) (human ASIC1a L280C [1]),effect of peptide on MTSET modification (human ASIC1a L280C [2])
–,–,"FRRF [FRRF (no amide), peptide FRRF lacking the c-terminal amide, used as a control]",5.6 ± 0.8%,did not interfere with MTSET modification
14 µM,20 µM,FRRF-NH2 [FRRFamide peptide],–,–
